Measured values as given in the CheMixHub ionic liquid set.

Assay: xn = mol fraction of the nth substance listed

CCCCCC[n+]1ccn(C)c1.F[B-](F)(F)F + CC(C)O + CCCO
viscosity [mPa·s], 101 kPa
Details	293.15 K	303.15 K	313.15 K
x2 = 0.0547, x3 = 0.092	153.8	92	–
x2 = 0.0978, x3 = 0.4041	31.47	21.38	15.28
x2 = 0.1003, x3 = 0.7991	4.92	3.33	2.35
x2 = 0.1006, x3 = 0.6013	13.2	9.16	6.69
x2 = 0.1012, x3 = 0.4996	20.14	13.93	10.1
x2 = 0.1014, x3 = 0.7009	8.3	5.74	4.16
x2 = 0.1116, x3 = 0.2875	49.62	32.6	22.59
x2 = 0.1293, x3 = 0.1504	85.1	53.44	–
x2 = 0.1973, x3 = 0.1121	75.21	48.39	32.33
x2 = 0.1985, x3 = 0.4006	20.51	14.2	10.17
x2 = 0.1992, x3 = 0.3012	32.59	21.43	15.29
x2 = 0.2003, x3 = 0.2005	49.41	32.39	22.5
x2 = 0.2003, x3 = 0.4992	13.3	9.31	6.79
x2 = 0.2012, x3 = 0.6984	5	3.35	2.37
x2 = 0.2977, x3 = 0.1042	50.06	32.73	22.7
x2 = 0.2999, x3 = 0.4989	8.8	6.05	4.35
x2 = 0.3037, x3 = 0.4006	13.28	9.19	6.68
x2 = 0.3046, x3 = 0.5961	5.05	3.39	2.36
x2 = 0.3058, x3 = 0.3005	20.27	13.93	10.1
x2 = 0.3977, x3 = 0.2999	13.8	9.55	6.92
x2 = 0.3985, x3 = 0.104	31.6	21.33	15.15
x2 = 0.3987, x3 = 0.3005	13.61	9.43	6.88
x2 = 0.3989, x3 = 0.3998	8.77	6.02	4.33
x2 = 0.3989, x3 = 0.5015	5.18	3.4	2.38
x2 = 0.4002, x3 = 0.1968	21.12	14.53	10.38
x2 = 0.4992, x3 = 0.4006	5.21	3.47	2.4
x2 = 0.5004, x3 = 0.0998	20.98	14.38	10.33
x2 = 0.5013, x3 = 0.3019	8.68	5.91	4.23
x2 = 0.5734, x3 = 0.2335	8.61	5.85	4.17
x2 = 0.6, x3 = 0.0992	13.73	9.47	6.84
x2 = 0.6001, x3 = 0.3004	5.39	3.43	2.38
x2 = 0.6942, x3 = 0.1049	8.82	5.98	4.27
x2 = 0.698, x3 = 0.2007	5.44	3.54	2.45
x2 = 0.7991, x3 = 0.101	5.41	3.47	2.37

COP(=O)([O-])OC.Cn1cc[n+](C)c1 + CC(C)O + O
100 kPa
Details	viscosity [mPa·s]
298.15 K, x2 = 0.248, x3 = 0.2507	83
303.15 K, x2 = 0.2, x3 = 0.1998	87
313.15 K, x2 = 0.148, x3 = 0.1518	81
323.15 K, x2 = 0.1, x3 = 0.0988	80
333.15 K, x2 = 0.044, x3 = 0.043	92
